From PubChem BioAssay AID2060893 (Molecular Pharmacology Branch, DTP, NCI, 2025)

Test system: K86415-001-R-J1-PDC complex spheroids, viability
Test: Anticancer human tumor K86415-001-R-J1-PDC patient-derived lung adenocarcinoma cell line growth inhibition [RAS]
Settings: for IC50: curve of first compound; for viability, T/C: stronger effect = lower value
In short: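 Agents were tested in combination matrices in half-log decrements from a top concentration at or near clinical Cmax (10 microM if undetermined). Targets were multi-cell spheroids of tumour lines plus HUVEC and MSC stromal cells.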

[1] = second compound 0.00316 µM, first compound 0.0316 µM
[2] = second compound 0.00316 µM, first compound 0.1 µM
[3] = second compound 0.00316 µM, first compound 0.316 µM
[4] = second compound 0.00316 µM, first compound 1 µM
[5] = second compound 0.01 µM, first compound 0.0316 µM
[6] = second compound 0.01 µM, first compound 0.1 µM
[7] = second compound 0.01 µM, first compound 0.316 µM
[8] = second compound 0.01 µM, first compound 1 µM
[9] = second compound 0.0316 µM, first compound 0.0316 µM
[10] = second compound 0.0316 µM, first compound 0.1 µM
[11] = second compound 0.0316 µM, first compound 0.316 µM
[12] = second compound 0.0316 µM, first compound 1 µM
[13] = second compound 0.1 µM, first compound 0.0316 µM
[14] = second compound 0.1 µM, first compound 0.1 µM
[15] = second compound 0.1 µM, first compound 0.316 µM
[16] = second compound 0.1 µM, first compound 1 µM
[17] = second compound 0.316 µM, first compound 0.0316 µM
[18] = second compound 0.316 µM, first compound 0.1 µM
[19] = second compound 0.316 µM, first compound 0.316 µM
[20] = second compound 0.316 µM, first compound 1 µM
[21] = second compound 1 µM, first compound 0.0316 µM
[22] = second compound 1 µM, first compound 0.1 µM
[23] = second compound 1 µM, first compound 0.316 µM
[24] = second compound 1 µM, first compound 1 µM
[25] = second compound 0.0316 µM, first compound 3.16 µM
[26] = second compound 0.0316 µM, first compound 10 µM
[27] = second compound 0.1 µM, first compound 3.16 µM
[28] = second compound 0.1 µM, first compound 10 µM
[29] = second compound 0.316 µM, first compound 3.16 µM
[30] = second compound 0.316 µM, first compound 10 µM
[31] = second compound 1 µM, first compound 3.16 µM
[32] = second compound 1 µM, first compound 10 µM
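Note: spheroids exposed to agents for seven days before readout.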

Which results are given for `C=CC(=O)Nc1cc(Nc2nccc(-c3cn(C)c4ccccc34)n2)c(OC)cc1N(C)CCN(C)C` + C=CC(=O)N1CCN(c2nc(OCC3CCCN3C)nc3c(F)c(-c4nc(N)cc(C)c4C(F)(F)F)c(Cl)cc23)C(C)C1?
IC50 (second compound 0.00316 µM): < 3.16 nM; IC50 (second compound 0.01 µM): < 3.16 nM; IC50 (second compound 0.0316 µM): < 3.16 nM; IC50 (second compound 0.1 µM): < 3.16 nM; IC50 (second compound 0.316 µM): < 3.16 nM; IC50 (second compound 1 µM): < 3.16 nM; viability, T/C (second compound 0.00316 µM, first compound 0.00316 µM): 19.7%; viability, T/C (second compound 0.00316 µM, first compound 0.01 µM): 17.1%; viability, T/C [1]: 15.6%; viability, T/C [2]: 13.2%; viability, T/C [3]: 8.17%; viability, T/C [4]: 7.25%; viability, T/C (second compound 0.01 µM, first compound 0.00316 µM): 11.2%; viability, T/C (second compound 0.01 µM, first compound 0.01 µM): 10.3%; viability, T/C [5]: 11%; viability, T/C [6]: 8.19%; viability, T/C [7]: 6.56%; viability, T/C [8]: 6.11%; viability, T/C (second compound 0.0316 µM, first compound 0.00316 µM): 10.1%; viability, T/C (second compound 0.0316 µM, first compound 0.01 µM): 11.4%; viability, T/C [9]: 8.27%; viability, T/C [10]: 6%; viability, T/C [11]: 5.17%; viability, T/C [12]: 5.86%; viability, T/C (second compound 0.1 µM, first compound 0.00316 µM): 10%; viability, T/C (second compound 0.1 µM, first compound 0.01 µM): 9.55%; viability, T/C [13]: 8.9%; viability, T/C [14]: 7.91%; viability, T/C [15]: 5.85%; viability, T/C [16]: 5.65%; viability, T/C (second compound 0.316 µM, first compound 0.00316 µM): 8.48%; viability, T/C (second compound 0.316 µM, first compound 0.01 µM): 10.5%; viability, T/C [17]: 11.3%; viability, T/C [18]: 6.83%; viability, T/C [19]: 5.85%; viability, T/C [20]: 5.41%; viability, T/C (second compound 1 µM, first compound 0.00316 µM): 11%; viability, T/C (second compound 1 µM, first compound 0.01 µM): 10.2%; viability, T/C [21]: 7.67%; viability, T/C [22]: 8.2%; viability, T/C [23]: 7.08%; viability, T/C [24]: 6.01%

How did the IC50 (second compound 0.00316 µM) turn out when `CC(C)NCC(C(=O)N1CCN(c2ncnc3c2C(C)CC3O)CC1)c1ccc(Cl)cc1` (stereo unspecified) + C=CC(=O)N1CCN(c2nc(OCC3CCCN3C)nc3c(F)c(-c4nc(N)cc(C)c4C(F)(F)F)c(Cl)cc23)C(C)C1 was run?
The IC50 was < 31.6 nM.

And the IC50 (second compound 0.01 µM)?
Its IC50 is < 31.6 nM.

And the IC50 (second compound 0.0316 µM)?
The IC50 was < 31.6 nM.

And the IC50 (second compound 0.1 µM)?
The IC50 was < 31.6 nM.

And the IC50 (second compound 0.316 µM)?
Its IC50 is < 31.6 nM.

What about the IC50 (second compound 1 µM) of the same molecule?
The IC50 was < 31.6 nM.

And the viability, T/C [1]?
The viability, T/C was 15.9%.

What about the viability, T/C [2] of the same molecule?
Its viability, T/C is 17.9%.

And the viability, T/C [3]?
The viability, T/C was 13.7%.

What about the viability, T/C [4] of the same molecule?
The viability, T/C was 11.4%.

What about the viability, T/C (second compound 0.00316 µM, first compound 3.16 µM) of the same molecule?
Its viability, T/C is 22.4%.

What about the viability, T/C (second compound 0.00316 µM, first compound 10 µM) of the same molecule?
The viability, T/C was 18.6%.

And the viability, T/C [5]?
The viability, T/C was 13.2%.

And the viability, T/C [6]?
The viability, T/C was 14.1%.

What about the viability, T/C [7] of the same molecule?
Its viability, T/C is 8.15%.

And the viability, T/C [8]?
Its viability, T/C is 7.26%.

What about the viability, T/C (second compound 0.01 µM, first compound 3.16 µM) of the same molecule?
The viability, T/C was 9.79%.

What about the viability, T/C (second compound 0.01 µM, first compound 10 µM) of the same molecule?
The viability, T/C was 5.61%.

And the viability, T/C [9]?
Its viability, T/C is 11.2%.

What about the viability, T/C [10] of the same molecule?
The viability, T/C was 12.1%.

And the viability, T/C [11]?
Its viability, T/C is 6.32%.

What about the viability, T/C [12] of the same molecule?
Its viability, T/C is 6.17%.

And the viability, T/C [25]?
The viability, T/C was 6.03%.

What about the viability, T/C [26] of the same molecule?
The viability, T/C was 3.62%.

What about the viability, T/C [13] of the same molecule?
The viability, T/C was 17.1%.

What about the viability, T/C [14] of the same molecule?
Its viability, T/C is 9.65%.

What about the viability, T/C [15] of the same molecule?
The viability, T/C was 7.67%.

And the viability, T/C [16]?
The viability, T/C was 4.58%.

And the viability, T/C [27]?
Its viability, T/C is 6.35%.

What about the viability, T/C [28] of the same molecule?
The viability, T/C was 2.96%.

What about the viability, T/C [17] of the same molecule?
Its viability, T/C is 12.1%.

And the viability, T/C [18]?
Its viability, T/C is 8.49%.

What about the viability, T/C [19] of the same molecule?
The viability, T/C was 6.58%.

What about the viability, T/C [20] of the same molecule?
Its viability, T/C is 5.42%.

And the viability, T/C [29]?
The viability, T/C was 7.11%.

And the viability, T/C [30]?
Its viability, T/C is 4.04%.

And the viability, T/C [21]?
The viability, T/C was 9.4%.

And the viability, T/C [22]?
Its viability, T/C is 10.8%.

And the viability, T/C [23]?
Its viability, T/C is 7.39%.

What about the viability, T/C [24] of the same molecule?
Its viability, T/C is 6.41%.

And the viability, T/C [31]?
The viability, T/C was 5.23%.

And the viability, T/C [32]?
The viability, T/C was 3.49%.

How did the IC50 (second compound 0.0316 µM) turn out when `CCC(CC)c1cc(NC2CCC(N)C2)n2nccc2n1` (stereo unspecified) + C#Cc1c(F)ccc2cc(O)cc(-c3ncc4c(N5CC6CCC(C5)N6)nc(OCC56CCCN5CC(F)C6)nc4c3F)c12 was run?
The IC50 was 1800 nM.

What about the IC50 (second compound 0.1 µM) of the same molecule?
The IC50 was 1780 nM.

What about the IC50 (second compound 0.316 µM) of the same molecule?
The IC50 was 1710 nM.

And the IC50 (second compound 1 µM)?
The IC50 was 1620 nM.

What about the IC50 (second compound 3.16 µM) of the same molecule?
The IC50 was 1050 nM.

What about the IC50 (second compound 10 µM) of the same molecule?
The IC50 was < 31.6 nM.

And the viability, T/C [9]?
Its viability, T/C is 108%.

What about the viability, T/C [10] of the same molecule?
Its viability, T/C is 126%.

And the viability, T/C [11]?
The viability, T/C was 109%.

What about the viability, T/C [12] of the same molecule?
Its viability, T/C is 98.1%.

And the viability, T/C [25]?
The viability, T/C was 3.47%.

And the viability, T/C [26]?
The viability, T/C was 3.41%.

What about the viability, T/C [13] of the same molecule?
The viability, T/C was 99.1%.

And the viability, T/C [14]?
The viability, T/C was 98.2%.

What about the viability, T/C [15] of the same molecule?
Its viability, T/C is 109%.

What about the viability, T/C [16] of the same molecule?
The viability, T/C was 97.4%.

What about the viability, T/C [27] of the same molecule?
Its viability, T/C is 2.92%.

What about the viability, T/C [28] of the same molecule?
The viability, T/C was 2.14%.

And the viability, T/C [17]?
Its viability, T/C is 97.1%.

What about the viability, T/C [18] of the same molecule?
The viability, T/C was 103%.

And the viability, T/C [19]?
The viability, T/C was 107%.

And the viability, T/C [20]?
The viability, T/C was 91.1%.

What about the viability, T/C [29] of the same molecule?
Its viability, T/C is 3.17%.

And the viability, T/C [30]?
Its viability, T/C is 3.38%.

And the viability, T/C [21]?
The viability, T/C was 74.2%.

What about the viability, T/C [22] of the same molecule?
Its viability, T/C is 83.7%.

What about the viability, T/C [23] of the same molecule?
Its viability, T/C is 85.7%.

What about the viability, T/C [24] of the same molecule?
Its viability, T/C is 90.2%.

And the viability, T/C [31]?
Its viability, T/C is 3.62%.

What about the viability, T/C [32] of the same molecule?
The viability, T/C was 2.6%.

What about the viability, T/C (second compound 3.16 µM, first compound 0.0316 µM) of the same molecule?
Its viability, T/C is 43.4%.

And the viability, T/C (second compound 3.16 µM, first compound 0.1 µM)?
Its viability, T/C is 46.1%.

And the viability, T/C (second compound 3.16 µM, first compound 0.316 µM)?
Its viability, T/C is 50.1%.

And the viability, T/C (second compound 3.16 µM, first compound 1 µM)?
The viability, T/C was 68.2%.

What about the viability, T/C (second compound 3.16 µM, first compound 3.16 µM) of the same molecule?
The viability, T/C was 3.28%.

What about the viability, T/C (second compound 3.16 µM, first compound 10 µM) of the same molecule?
Its viability, T/C is 2.71%.

What about the viability, T/C (second compound 10 µM, first compound 0.0316 µM) of the same molecule?
The viability, T/C was 15.4%.

And the viability, T/C (second compound 10 µM, first compound 0.1 µM)?
Its viability, T/C is 18.1%.

And the viability, T/C (second compound 10 µM, first compound 0.316 µM)?
Its viability, T/C is 24.3%.

What about the viability, T/C (second compound 10 µM, first compound 1 µM) of the same molecule?
The viability, T/C was 33.3%.

And the viability, T/C (second compound 10 µM, first compound 3.16 µM)?
The viability, T/C was 2.78%.

And the viability, T/C (second compound 10 µM, first compound 10 µM)?
Its viability, T/C is 2.37%.
